Numbered stars: 1 amine (or outer) side, 2 acyl side, 3 side chain; on linkers, the order of the positions; unused ones are H or OH. Bridge positions count the residues as written; N and C are the ends. Square brackets hold non-standard residues; d marks the D form. Peptide text beside a SMILES is read from it. * marks the point of attachment. ξ: configuration not given here. Piperazine(2S-CO,4-Me) = CN1CCN[C@H](C(=O)O)C1; NH(1,3-benzodioxol-5-yl) = c1cc2c(cc1N*)OCO2; Phe(3,5-Me2) = Cc1cc(C)cc(C[C@H](N)C(=O)O)c1; Phe(3-Me) = Cc1cccc(C[C@H](N)C(=O)O)c1; NH(4-Cl-2-F-phenyl) = Fc1cc(Cl)ccc1N*; Pro(4R-Me) = C[C@H]1CN[C@H](C(=O)O)C1; Hyp = O=C(O)[C@@H]1C[C@@H](O)CN1; NH(4-Et-phenyl) = CCc1ccc(N*)cc1; NH(4-Me-phenyl) = Cc1ccc(N*)cc1; ξNMeThr = CNC(C(=O)O)[C@@H](C)O; aThr = C[C@H](O)[C@H](N)C(=O)O; Pip = O=C(O)[C@@H]1CCCCN1; X3 = c1cc2c(cc1N*)OCCO2; CO = O=C([*:1])[*:2]
Experiments:
[1] = target: T1, S. aureus ClpP (Sa-ClpP) (Staphylococcus aureus, UniProt Q2G036); assay: Casein-BODIPY digestion assay (ClpP activation); assay type: biochemical
T1 construct: made in house; host or cells: E. coli BL21 (DE3)

[2] = Microsomal metabolic stability; assay type: in vitro ADME, human
[3] = Microsomal metabolic stability; assay type: in vitro ADME, mouse
Summary of the method: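 CD-1 mouse liver microsomes (0.6381 mg/mL protein microsomal solution, 0.1 M potassium phosphate pH 7.4 with EDTA) were incubated with compound and an NADPH-regenerating system at 37 °C, in triplicate. Acetonitrile/warfarin quench at 0, 15, 30, 60, 120 and 240 min, then LCMS. Half-life came from a first-order least-squares fit.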

[4] = Plasma stability assay; assay type: in vitro ADME, human
Summary of the method: (§1)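 Compounds at 10 μM final in human or mouse plasma, incubated at 37 °C and sampled at 0, 3, 24 and 48 h in triplicate. Reactions quenched with cold acetonitrile containing warfarin internal standard; parent measured by LC-MS. Half-life from least-squares first-order fit.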

[5] = Plasma stability assay; assay type: in vitro ADME, mouse
Summary of the method: as §1

[6] = microsomal metabolic stability half-life, human liver microsomes
[7] = microsomal metabolic stability half-life, mouse liver microsomes
[8] = plasma stability half-life, human plasma, 37° C.
[9] = plasma stability half-life, mouse plasma, 37° C.

T1 sequence (Q2G036 whole entry): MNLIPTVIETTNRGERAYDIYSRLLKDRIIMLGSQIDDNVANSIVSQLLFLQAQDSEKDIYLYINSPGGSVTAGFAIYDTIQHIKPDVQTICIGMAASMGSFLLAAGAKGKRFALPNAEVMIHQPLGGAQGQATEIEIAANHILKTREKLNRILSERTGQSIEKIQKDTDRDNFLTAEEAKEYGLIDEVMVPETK

With Cc1cccc(C[C@H](NC(=O)Nc2ccc3c(c2)OCCO3)C(=O)N[C@@H]2C(=O)N3CCC[C@H]3C(=O)N3CCCC[C@H]3C(=O)N[C@@H](C)C(=O)N3C[C@H](C)C[C@H]3C(=O)O[C@H]2C)c1 [Compound 21, (S)-2-(3-(2,3-DIHYDROBENZO[B][1,4]DIOXIN-6-YL)UREIDO)-3-(M-TOLYL)-N-((2R,6S,8AS,14AS,20S,21S,23AS)-2,6,21-TRIMETHYL-5,8,14,19,23-PENTAOXOOCTADECAHYDRO-1H,5H,14H,19H-PYRIDO[2,1-I]DIPYRROLO[2,1-C:2′,1′-L][1]OXA[4,7,10,13]TETRAAZACYCLOHEXADECIN-20-YL)PROPANAMIDE] ({X3-CO}-[Phe(3-Me)][aThr]P[Pip]A[Pro(4R-Me)]; ester 2-C) the EC50 [1] was 370 ± 40 nM, the “Human” value ([2]; human, pH 7.4) was 4.49 ± 0.68 h and the “Mouse” value ([3]; CD-1, mouse, pH 7.4) was 3.38 ± 0.37 h. The “Human” value ([4]; human, 10 μM) was >50 h and the “Mouse” value ([5]; mouse, 10 μM) was >50 h.

With Cc1cccc(C[C@H](NC(=O)Nc2ccc(Cl)cc2F)C(=O)N[C@H]2COC(=O)[C@@H]3C[C@@H](C)CN3C(=O)[C@H](C)NC(=O)[C@@H]3CCCCN3C(=O)[C@@H]3C[C@@H](O)CN3C2=O)c1 [Compound 10] the EC50 [1] was 380 ± 30 nM, the “Human” value ([2]; human, pH 7.4) was 0.29 ± 0.04 h and the “Mouse” value ([3]; CD-1, mouse, pH 7.4) was 0.7 ± 0.07 h. For the same compound, the “Human” value ([4]; human, 10 μM) was 58.50 h and the “Mouse” value ([5]; mouse, 10 μM) was >50 h.

For Cc1cccc(C[C@H](NC(=O)Nc2ccc(Cl)cc2F)C(=O)N[C@@H]2C(=O)N3CCC[C@H]3C(=O)N(C)C([C@@H](C)O)C(=O)N[C@@H](C)C(=O)N3C[C@H](C)C[C@H]3C(=O)O[C@H]2C)c1 (stereo partly drawn) [Compound 5] ({NH(4-Cl-2-F-phenyl)-CO}-[Phe(3-Me)][aThr]P[ξNMeThr]A[Pro(4R-Me)]; ester 2-C), the EC50 [1] was 320 ± 20 nM, the “Human” value ([2]; human, pH 7.4) was 0.31 ± 0.03 h and the “Mouse” value ([3]; CD-1, mouse, pH 7.4) was 1.02 ± 0.2 h. The “Human” value ([4]; human, 10 μM) was >50 h and the “Mouse” value ([5]; mouse, 10 μM) was >50 h.

In the case of Cc1ccc(NC(=O)N[C@@H](Cc2cccc(C)c2)C(=O)N[C@H]2COC(=O)[C@@H]3C[C@@H](C)CN3C(=O)[C@H](C)NC(=O)[C@@H]3CN(C)CCN3C(=O)[C@@H]3CCCN3C2=O)cc1 [Compound 15, (S)-3-(M-TOLYL)-2-(3-(P-TOLYL)UREIDO)-N-((6AS,12S,15AS,17R,21S,23AS)-2,17,21-TRIMETHYL-6,11,15,20,23-PENTAOXOOCTADECAHYDRO-2H,6H,11H,15H-PYRAZINO[2,1-I]DIPYRROLO[2,1-C:2′,1′-L][1]OXA[4,7,10,13]TETRAAZACYCLOHEXADECIN-12-YL)PROPANAMIDE] ({NH(4-Me-phenyl)-CO}-[Phe(3-Me)]SP[Piperazine(2S-CO,4-Me)]A[Pro(4R-Me)]; ester 2-C), the EC50 [1] is reported as 1580 ± 200 nM, the “Human” value [2, 6] is reported as 0.67 ± 0.04 h and the “Mouse” value [3, 7] is reported as 2.28 ± 0.16 h. The “Human” value [4, 8] was >50 h and the “Mouse” value [5, 9] was 5.95 ± 0.6 h.

In the case of Cc1cccc(C[C@H](NC(=O)Nc2ccc3c(c2)OCO3)C(=O)N[C@H]2COC(=O)[C@@H]3C[C@@H](C)CN3C(=O)[C@H](C)NC(=O)[C@@H]3CN(C)CCN3C(=O)[C@@H]3CCCN3C2=O)c1 [Compound 17, (S)-2-(3-(BENZO[D][1,3]DIOXOL-5-YL)UREIDO)-3-(M-TOLYL)-N-((6AS,12S,15AS,17R,21S,23AS)-2,17,21-TRIMETHYL-6,11,15,20,23-PENTAOXOOCTADECAHYDRO-2H,6H,11H,15H-PYRAZINO[2,1-I]DIPYRROLO[2,1-C:2′,1′-L][1]OXA[4,7,10,13]TETRAAZACYCLOHEXADECIN-12-YL)PROPANAMIDE] ({NH(1,3-benzodioxol-5-yl)-CO}-[Phe(3-Me)]SP[Piperazine(2S-CO,4-Me)]A[Pro(4R-Me)]; ester 2-C), the EC50 [1] is reported as 2640 ± 100 nM, the “Human” value ([2]; human, pH 7.4) is reported as 1.58 ± 0.25 h and the “Mouse” value ([3]; CD-1, mouse, pH 7.4) is reported as 4.83 ± 0.46 h. The “Human” value ([4]; human, 10 μM) was 51.18 ± 6.0 h and the “Mouse” value ([5]; mouse, 10 μM) was 6.46 ± 0.4 h.

For CCc1ccc(NC(=O)N[C@@H](Cc2cccc(C)c2)C(=O)N[C@@H]2C(=O)N3C[C@H](O)C[C@H]3C(=O)N3CCCC[C@H]3C(=O)N[C@@H](C)C(=O)N3C[C@H](C)C[C@H]3C(=O)O[C@H]2C)cc1 [Compound 25, (S)-2-(3-(4-ETHYLPHENYL)UREIDO)-N-((2R,6S,8AS,14AS,16R,20S,21S,23AS)-16-HYDROXY-2,6,21-TRIMETHYL-5,8,14,19,23-PENTAOXOOCTADECAHYDRO-1H,5H,14H,19H-PYRIDO[2,1-I]DIPYRROLO[2,1-C:2′,1′-L][1]OXA[4,7,10,13]TETRAAZACYCLOHEXADECIN-20-YL)-3-(M-TOLYL)PROPANAMIDE] ({NH(4-Et-phenyl)-CO}-[Phe(3-Me)][aThr][Hyp][Pip]A[Pro(4R-Me)]; ester 2-C), the EC50 [1] was 410 ± 20 nM, the “Human” value ([2]; human, pH 7.4) was 15.19 ± 2.47 h and the “Mouse” value ([3]; CD-1, mouse, pH 7.4) was 2.35 ± 0.27 h. The “Human” value ([4]; human, 10 μM) was >50 h and the “Mouse” value ([5]; mouse, 10 μM) was >50 h.

For Cc1ccc(NC(=O)N[C@@H](Cc2cccc(C)c2)C(=O)N[C@@H]2C(=O)N3CCC[C@H]3C(=O)N3CCCC[C@H]3C(=O)N[C@@H](C)C(=O)N3C[C@H](C)C[C@H]3C(=O)O[C@H]2C)cc1 [Compound 1, (S)-3-(M-TOLYL)-2-(3-(P-TOLYL)UREIDO)-N-((2R,6S,8AS,14AS,20S,21S,23AS)-2,6,21-TRIMETHYL-5,8,14,19,23-PENTAOXOOCTADECAHYDRO-1H,5H,14H,19H-PYRIDO[2,1-I]DIPYRROLO[2,1-C:2′,1′-L][1]OXA[4,7,10,13]TETRAAZACYCLOHEXADECIN-20-YL)PROPANAMIDE] ({NH(4-Me-phenyl)-CO}-[Phe(3-Me)][aThr]P[Pip]A[Pro(4R-Me)]; ester 2-C), the EC50 [1] was 430 ± 20 nM, the “Human” value [2, 6] was 11.45 h and the “Mouse” value [3, 7] was 5.22 h. The “Human (hr)” value [4, 8] was >>48 hr and the “Mouse (hr)” value [5, 9] was >>48 hr.

With Cc1ccc(NC(=O)N[C@@H](Cc2cccc(C)c2)C(=O)N[C@@H]2C(=O)N3C[C@H](O)C[C@H]3C(=O)N3CCN(C)C[C@H]3C(=O)N[C@@H](C)C(=O)N3C[C@H](C)C[C@H]3C(=O)O[C@H]2C)cc1 [Compound 30, (S)—N-((6AS,8R,12S,13S,15AS,17R,21S,23AS)-8-HYDROXY-2,13,17,21-TETRAMETHYL-6,11,15,20,23-PENTAOXOOCTADECAHYDRO-2H,6H,11H,15H-PYRAZINO[2,1-I]DIPYRROLO[2,1-C:2′,1′-L][1]OXA[4,7,10,13]TETRAAZACYCLOHEXADECIN-12-YL)-3-(M-TOLYL)-2-(3-(P-TOLYL)UREIDO)PROPANAMIDE] ({NH(4-Me-phenyl)-CO}-[Phe(3-Me)][aThr][Hyp][Piperazine(2S-CO,4-Me)]A[Pro(4R-Me)]; ester 2-C) the EC50 [1] was 290 ± 290 nM, the “Human” value [2, 6] was 1.30 ± .305 h and the “Mouse” value [3, 7] was 6.21 ± .215 h. For the same compound, the “Human” value [4, 8] was >50 h and the “Mouse” value [5, 9] was >50 h.

With Cc1cc(C)cc(C[C@H](NC(=O)Nc2ccc(Cl)cc2F)C(=O)N[C@@H]2C(=O)N3CCC[C@H]3C(=O)N3CCCC[C@H]3C(=O)N[C@@H](C)C(=O)N3C[C@H](C)C[C@H]3C(=O)O[C@H]2C)c1 [Compound 4, (S)-2-(3-(4-CHLORO-2-FLUOROPHENYL)UREIDO)-3-(3,5-DIMETHYLPHENYL)-N-((2R,6S,8AS,14AS,20S,21S,23AS)-2,6,21-TRIMETHYL-5,8,14,19,23-PENTAOXOOCTADECAHYDRO-1H,5H,14H,19H-PYRIDO[2,1-I]DIPYRROLO[2,1-C:2′,1′-L][1]OXA[4,7,10,13]TETRAAZACYCLOHEXADECIN-20-YL)PROPANAMIDE] ({NH(4-Cl-2-F-phenyl)-CO}-[Phe(3,5-Me2)][aThr]P[Pip]A[Pro(4R-Me)]; ester 2-C) the EC50 [1] was 430 ± 20 nM, the “Human” value ([2]; human, pH 7.4) was 0.94 ± 0.09 h and the “Mouse” value ([3]; CD-1, mouse, pH 7.4) was 6.99 ± 1.07 h. The “Human (hr)” value ([4]; human, 10 μM) was >>48 hr and the “Mouse (hr)” value ([5]; mouse, 10 μM) was >>48 hr.

Source: patent publication US10570179B2, “Substituted urea depsipeptide analogs as activators of the CLPP endopeptidase” (priority 2016, dated 2020)
